These results are taken from PubChem BioAssay AID1963977 (Molecular Pharmacology Branch, DTP, NCI, 2024).

Values joined by “and” are separate entries in the source; they are usually repeats but may differ in a detail not shown here. Equal entries are not always repeated.

The subject of this assay is 624824-186-R-J3-PDC multicell spheroids, viability. The experiment in a line: Anticancer human tumor 624824-186-R-J3-PDC patient-derived colon adenocarcinoma cell line growth inhibition [PI3K]. The following applies: for viability, T/C: stronger effect = lower value. The text has this: Combinatorial screen of targeted agents with the PI3K inhibitors inavolisib, alpelisib, duvelisib, and copanlisib in multi-cell type tumor spheroids
A high-throughput screen of multi-cell type tumor spheroids was designed to identify active combinations of targeted small molecules and PI3K pathway inhibitors. Complex spheroids include a stromal component modeled by human endothelial cells (HUVEC) and fibroblasts modeled by human mesenchymal stem cells (MSCs). The concentration ranges selected for each drug and investigational agent were based upon clinically achievable concentrations if the clinical Cmax of the agent was known.
Compounds. The drugs and investigational agents: inavolisib (NSC800729), alpelisib (NSC765974), duvelisib (NSC772469), copanlisib (NSC816437), ipatasertib (NSC767898), afuresertib (NSC778305), talazoparib (NSC767125), sapanisertib (NSC764658), selumetinib (NSC741078), tovorafenib (DAY101, NSC766906), vemurafenib (NSC761431), ravoxertinib (NSC781343), sotorasib (NSC818433), MRTX1133 (NSC 836407), abemaciclib (NSC 768073), palbociclib (NSC758247), venetoclax (NSC 766270), SY5609 (NSC837396), enzalutamide (NSC755605), and darolutamide (NSC825331), were obtained from the National Cancer Institute (NCI) Developmental Therapeutics Program Chemical Repository. The FDA-approved anticancer drug set is available from the NCI Developmental Therapeutics Program. […] The stock solutions were prepared in dimethyl sulfoxide (DMSO, Sigma-Aldrich, St. Louis, MO, cat. D2650) at 800-fold the tested concentration and stored at -70 degrees C prior to their use. All drugs and investigational agents were tested over a range starting from a high concentration at or near the clinical Cmax and decreasing in half-log increments. If the clinical Cmax for an agent had not been determined, the highest concentration tested was 10 microM.
Cell Culture. All cells were maintained in an incubator at 37 degrees C and 5% CO2 with 95% humidity. The PDC lines were cultured according to standard operating procedures established by the NCI PDMR (https://pdmr.cancer.gov/sops/default.htm). All PDCs were thawed and cultured in Matrigel-coated flasks prepared with a working solution of 1X Ham's F-12 nutrient mix, without supplementation (Invitrogen, Waltham, MA, cat. 11765054), 100 U/mL penicillin-streptomycin (Invitrogen, cat. 15140122), and 2.5% Matrigel (Corning Inc., Corning, NY, cat. 354248) for the first three passages. The 354836-022-R-J1-PDC, 475296-252-R-J1-PDC, and 997726-040-R-J2-PDC lines were cultured in 6A media, which includes advanced DMEM/F-12 (Thermo Fisher Scientific, cat. 12634028), 10 mM HEPES (Thermo Fisher Scientific, cat. 15630080), 1X GlutaMAX supplement (Thermo Fisher Scientific, cat. 35050061), 0.1 mg/mL primocin (InvivoGen, San Diego, CA, cat. ant-pm-2), 10% defined fetal bovine serum, heat inactivated (HyClone Laboratories Inc., Logan, UT, cat. SH30070.03HI), 50% L-WRN conditioned media (ATCC, cat. CRL-3276), 1.25 mM N-Acetyl-L-cysteine (Sigma-Aldrich, cat. A9165), 10 mM nicotinamide (Sigma-Aldrich, cat. N0636), 1X B-27 supplement (Thermo Fisher Scientific, cat. 17504044), 1X N-2 supplement (Thermo Fisher Scientific, cat. 17502048), and 10 microM Y-27632 dihydrochloride (Tocris Bioscience, Bristol, United Kingdom, cat. 1254). The 624824-186-R-J2-PDC line was cultured in 6C/Colon 1B media, which includes all 6A media components plus 50 ng/mL human EGF recombinant protein (Thermo Fisher Scientific, cat. PHG0311). […]

[1] abbreviates: curve of first compound, second compound 0.0316 µM.
Where [2] appears, read: curve of first compound, second compound 0.1 µM.
Where [3] appears, read: curve of first compound, second compound 0.316 µM.
Where [4] appears, read: curve of first compound, second compound 1 µM.
[5] abbreviates: second compound 0.0316 µM, first compound 0.0316 µM.
Where [6] appears, read: second compound 0.0316 µM, first compound 0.1 µM.
Setting [7] is: second compound 0.0316 µM, first compound 0.316 µM.
Setting [8] is: second compound 0.0316 µM, first compound 1 µM.
Where [9] appears, read: second compound 0.0316 µM, first compound 3.16 µM.
Where [10] appears, read: second compound 0.0316 µM, first compound 10 µM.
Setting [11] is: second compound 0.1 µM, first compound 0.0316 µM.
[12] abbreviates: second compound 0.1 µM, first compound 0.1 µM.
Setting [13] is: second compound 0.1 µM, first compound 0.316 µM.
Setting [14] is: second compound 0.1 µM, first compound 1 µM.
The mark [15] stands for this setting: second compound 0.1 µM, first compound 3.16 µM.
Where [16] appears, read: second compound 0.1 µM, first compound 10 µM.
[17] abbreviates: second compound 0.316 µM, first compound 0.0316 µM.
[18] abbreviates: second compound 0.316 µM, first compound 0.1 µM.
Setting [19] is: second compound 0.316 µM, first compound 0.316 µM.
Where [20] appears, read: second compound 0.316 µM, first compound 1 µM.
Where [21] appears, read: second compound 0.316 µM, first compound 3.16 µM.
[22] abbreviates: second compound 0.316 µM, first compound 10 µM.
The mark [23] stands for this setting: second compound 1 µM, first compound 0.0316 µM.
Setting [24] is: second compound 1 µM, first compound 0.1 µM.
The mark [25] stands for this setting: second compound 1 µM, first compound 0.316 µM.
Where [26] appears, read: second compound 1 µM, first compound 1 µM.
[27] abbreviates: second compound 1 µM, first compound 3.16 µM.
[28] abbreviates: second compound 1 µM, first compound 10 µM.
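Also: spheroids exposed to agents for seven days before luminescence read.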
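For viability, T/C in this document: luminescent signal used as a stand-in for spheroid viability; percent viability relative to DMSO vehicle control wells taken as 100%.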

Regarding `CC1(C)CCC(CN2CCN(c3ccc(C(=O)NS(=O)(=O)c4ccc(NCC5CCOCC5)c([N+](=O)[O-])c4)c(Oc4cnc5[nH]ccc5c4)c3)CC2)=C(c2ccc(Cl)cc2)C1`, the viability, T/C was 101% [middle of 4 runs] (compound 0.0316 µM); 99.1% [middle of 4 runs] (compound 0.1 µM); 103% (2×) and 102% and 107% (compound 0.316 µM); 105% [middle of 4 runs] (compound 1 µM); 110% [middle of 4 runs] (compound 3.16 µM).

As to `Cn1ncc(Cl)c1-c1cc(C(=O)NC(CN)Cc2cccc(F)c2)sc1Cl` (stereo unspecified) + CC(Nc1ccc2c(c1)OCCn1cc(N3C(=O)OCC3C(F)F)nc1-2)C(N)=O, the concentration for half-maximal inhibition (IC50) runs as follows: (curve of first compound, second compound 0.00316 µM) over 10 µM; (curve of first compound, second compound 0.01 µM) over 10 µM; under setting [1], over 10 µM; under setting [2], over 10 µM; under setting [3], over 10 µM; under setting [4], 3.12 µM. The viability, T/C was 111% (second compound 0.00316 µM, first compound 0.0316 µM); 105% (second compound 0.00316 µM, first compound 0.1 µM); 103% (second compound 0.00316 µM, first compound 0.316 µM); 74.1% (second compound 0.00316 µM, first compound 1 µM); 55.4% (second compound 0.00316 µM, first compound 3.16 µM); 80% (second compound 0.00316 µM, first compound 10 µM). The viability, T/C is 103% (second compound 0.01 µM, first compound 0.0316 µM); 99.3% (second compound 0.01 µM, first compound 0.1 µM); 92.9% (second compound 0.01 µM, first compound 0.316 µM); 70% (second compound 0.01 µM, first compound 1 µM); 52.4% (second compound 0.01 µM, first compound 3.16 µM); 84% (second compound 0.01 µM, first compound 10 µM). Moreover, the viability, T/C runs as follows: under setting [5], 104%; under setting [6], 99.4%; under setting [7], 90.2%; under setting [8], 66.7%; under setting [9], 49.5%; under setting [10], 83.1%. In addition, the viability, T/C runs as follows: under setting [11], 103%; under setting [12], 97.3%; under setting [13], 91.4%; under setting [14], 69.2%; under setting [15], 51.4%; under setting [16], 79.2%. Also, the viability, T/C reads like this: under setting [17], 100%; under setting [18], 93%; under setting [19], 88.5%; under setting [20], 64.1%; under setting [21], 42%; under setting [22], 62.4%. The viability, T/C is 90.1% under setting [23]; 90.6% under setting [24]; 76.7% under setting [25]; 63.7% under setting [26]; 44.3% under setting [27]; 50.9% under setting [28].

Take `CC(C)NCC(C(=O)N1CCN(c2ncnc3c2C(C)CC3O)CC1)c1ccc(Cl)cc1` (stereo unspecified): the viability, T/C was 101% [middle of 4 runs] (compound 0.0316 µM); 101% [middle of 4 runs] (compound 0.1 µM); 102% (2×) and 100% and 105% (compound 0.316 µM); 82% [middle of 4 runs] (compound 1 µM); 67.8% [middle of 4 runs] (compound 3.16 µM); 57.8% [middle of 4 runs] (compound 10 µM). In addition, the IC50 (curve of compound) was > 10 µM and 6.5 µM.

Regarding `CC1(C)CCC(Nc2ncc(C(F)(F)F)c(-c3c[nH]c4c(P(C)(C)=O)c(C#N)ccc34)n2)CN1` (stereo unspecified) + CC(Nc1ncnc2nc[nH]c12)c1cc2cccc(Cl)c2c(=O)n1-c1ccccc1, the IC50 by setting is: under setting [1], 5.14 µM; under setting [2], 5.36 µM; under setting [3], 5.34 µM; under setting [4], 5.19 µM; (curve of first compound, second compound 3.16 µM) 5.01 µM; (curve of first compound, second compound 10 µM) 3.65 µM. For the same molecule, the viability, T/C is 99% under setting [5]; 85.7% under setting [6]; 92.2% under setting [7]; 92.5% under setting [8]; 83.8% under setting [9]; 3.64% under setting [10]. In addition, the viability, T/C reads like this: under setting [11], 115%; under setting [12], 89%; under setting [13], 89.2%; under setting [14], 99%; under setting [15], 89%; under setting [16], 3.93%. The viability, T/C runs as follows: under setting [17], 99.2%; under setting [18], 92.4%; under setting [19], 82.2%; under setting [20], 85.1%; under setting [21], 88.1%; under setting [22], 4.29%. The viability, T/C under setting [23] was 90.8%; the viability, T/C under setting [24] is 86.2%; the viability, T/C under setting [25] is 87.3%; the viability, T/C under setting [26] was 95.5%; the viability, T/C under setting [27] was 84.8%; the viability, T/C under setting [28] is 3.92%. Further, the viability, T/C reads like this: (second compound 3.16 µM, first compound 0.0316 µM) 79.5%; (second compound 3.16 µM, first compound 0.1 µM) 82.5%; (second compound 3.16 µM, first compound 0.316 µM) 78%; (second compound 3.16 µM, first compound 1 µM) 80.9%; (second compound 3.16 µM, first compound 3.16 µM) 82.3%; (second compound 3.16 µM, first compound 10 µM) 4.17%. Besides, the viability, T/C (second compound 10 µM, first compound 0.0316 µM) is 66.5%; the viability, T/C (second compound 10 µM, first compound 0.1 µM) was 63.2%; the viability, T/C (second compound 10 µM, first compound 0.316 µM) was 63.2%; the viability, T/C (second compound 10 µM, first compound 1 µM) is 60.9%; the viability, T/C (second compound 10 µM, first compound 3.16 µM) is 57%; the viability, T/C (second compound 10 µM, first compound 10 µM) is 3.67%.

The viability, T/C is the result in the treated group divided by that in the control group, in per cent. One may read the IC50 as the concentration that inhibits the measured activity by half.
